Literature values in patent publication US20240239814A1, “Complexes Of CU(I) As Antitumor Agents” (priority 2021, published 2024).

Key:
[1] = compared with CDDP; cited from earlier work
[2] = animals of the Lewis Lung Carcinoma model; cited from earlier work
proteasome = details: cited from earlier work
[3] = test system: HCT-15 colon cancer spheroids; details: HCT-15 spheroids; cited from earlier work
[4] = test system: human colorectal cancer xenografts; details: oxaliplatin-sensitive and resistant models; cited from earlier work
[5] = test system: panel of human cancer cells; details: 2D monolayer, cited from earlier work
[6] = cited from earlier work
[7] = test system: human non transformed cells; details: average IC50 normal cells / average IC50 malignant cells; cited from earlier work
[8] = test system: human cancer cell lines endowed with acquired or natural resistance to CDDP or to OXP; details: fold lower IC50 in resistant cell lines; cited from earlier work
Lewis Lung Carcinoma = details: different schedules, compared with CDDP; cited from earlier work
[9] = test system: LoVo colon cancer spheroids; details: cited from earlier work

For F[P-](F)(F)(F)(F)F.OCP(CO)CO.OCP(CO)CO.OCP(CO)CO.OCP(CO)CO.[Cu+] [[Cu(thp)4][PF6]], the “median lethal doses (LD50) and maximum tolerated doses (MTD)” value [1] is given as “significantly higher that those recorded with CDDP”, the “clinical signs of toxicity” value [2] is given as “no clinical signs of toxicity and no anorexia” and the “effect on proteolytic activities of proteasome” value (proteasome) is given as “inhibit the proteolytic activities of proteasome”. The “IC50 relative to OXP” value [3] was “very similar to those of OXP”, the “efficacy of chemotherapy in xenografts” value [4] was “extremely effective in both oxaliplatin-sensitive and resistant models” and the “cytotoxicity relative to CDDP” value ([5]; fold more cytotoxic than CDDP) was “up to 50 fold”. The “cytotoxicity relative to OXP” value ([5]; fold more cytotoxic than OXP) was no more than 30 fold, the “solubility and stability in water solution” value [6] was “highly soluble and stable in water solution” and the “selectively index relative to CDDP” value [7] was “about 30 times”. For the same compound, the “selectively index relative to OXP” value [7] was 3 times, the “IC50 relative to the reference metallodrugs” value [8] was “up to 35 fold” and the “inhibition of proliferation of tumor cell population in vivo” value (Lewis Lung Carcinoma) was “superior to that induced by the gold-standard drug CDDP”. For the same compound, the “IC50 relative to OXP” value [9] was “very similar to those of OXP”.
